Measured values: PubChem BioAssay (NCI)
Several values for one entry are separate records, joined by “and”; a condition that tells them apart may be missing. Equal values may be shown once.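 Compound exposure: 48 hours, 5 concentrations, 96-well plates. At the GI50, growth is halved. TGI: total growth inhibition.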

Key:
Assay in all cases: NCI anticancer screen, dose series, 48 h
SK-MEL-5 melanoma = test system: SK-MEL-5 melanoma
SNB-19 CNS = test system: SNB-19 CNS
U251 CNS = test system: U251 CNS
CCRF-CEM leukemia = test system: CCRF-CEM leukemia
SK-OV-3 ovarian = test system: SK-OV-3 ovarian
TK-10 renal = test system: TK-10 renal
MOLT-4 leukemia = test system: MOLT-4 leukemia
RXF 393 renal = test system: RXF 393 renal
HL-60(TB) leukemia = test system: HL-60(TB) leukemia
SNB-75 CNS = test system: SNB-75 CNS

Row | SMILES | TGI (SK-MEL-5 melanoma) | TGI (SNB-19 CNS) | TGI (U251 CNS) | TGI (CCRF-CEM leukemia) | TGI (SK-OV-3 ovarian) | TGI (TK-10 renal) | TGI (MOLT-4 leukemia) | TGI (RXF 393 renal) | TGI (HL-60(TB) leukemia) | TGI (SNB-75 CNS) | GI50 (SK-MEL-5 melanoma) | GI50 (SNB-19 CNS) | GI50 (U251 CNS) | GI50 (CCRF-CEM leukemia) | GI50 (SK-OV-3 ovarian) | GI50 (TK-10 renal) | GI50 (MOLT-4 leukemia) | GI50 (RXF 393 renal) | GI50 (HL-60(TB) leukemia) | GI50 (SNB-75 CNS)
1 | Nc1nc(=S)[nH]c(C(=O)Nc2ccc(Cl)c(Cl)c2)c1-c1ccc(Cl)cc1 | > 100 µM | > 100 µM | > 100 µM | > 100 µM | > 100 µM | > 100 µM | > 100 µM | > 100 µM | > 100 µM | > 100 µM |  |  |  |  |  |  |  |  |  | 
2 | COc1ccc2cc3[n+](cc2c1OC)CCc1cc(O)c(O)cc1-3 | > 100 µM | > 100 µM | > 100 µM | > 100 µM | > 100 µM | > 100 µM | > 100 µM | > 100 µM | > 100 µM | > 100 µM |  |  |  |  |  |  |  |  |  | 
3 | C1CCN(C2OC3C(COC3N3CCCCC3)OC2OC2CCO[C@@H]2N2CCCCC2)CC1 (some centres undefined) | > 100 µM | > 100 µM | > 100 µM | 40.4 µM | > 100 µM | > 100 µM | 84.7 µM | 27.5 µM | 67.8 µM | 46.2 µM |  |  |  |  |  |  |  |  |  | 
4 | Cc1ccc(C(=O)C(Cl)C(Cl)c2ccc(C)cc2)cc1 (centres undefined) | 6.68 µM | 23.3 µM | 12.4 µM | 4.28 µM | 30.7 µM | 8.13 µM | 6.67 µM | 23.4 µM | 10 µM | 23 µM |  |  |  |  |  |  |  |  |  | 
5 | O=c1[nH]ccc2nc(N3CCC(O)CC3)nc(Nc3cccc(C(F)(F)F)c3)c12 | 2.5 µM | > 100 µM | > 100 µM | > 100 µM | > 100 µM | 44.9 µM | 7.75 µM | 23.2 µM | 5.06 µM | 82.1 µM | 1.23 µM | 18.1 µM | 6.15 µM | 2.1 µM | 0.486 µM | 5.98 µM | 2.24 µM | 1.45 µM | 0.863 µM | 5.76 µM
6 | O=CN1N=C(c2ccc(Cl)cc2)CC1c1cccc(Nc2ccnc3cc(Cl)ccc23)c1 (centres undefined) | 1.93 µM | > 100 µM | 13.6 µM | 23.1 µM | > 100 µM | 21.1 µM | 11 µM | 5.87 µM | 4.49 µM | > 100 µM | 0.54 µM | 4.19 µM | 2.47 µM | 1.42 µM | 2.9 µM | 2.34 µM | 1.13 µM | 1.4 µM | 1.27 µM | 1.7 µM
7 | COC1OC(C)C(O)CC1OS(=O)(=O)c1ccc(C)cc1 (centres undefined) | > 100 µM | > 100 µM | > 100 µM | > 100 µM | > 100 µM | > 100 µM | > 100 µM | > 100 µM | > 100 µM | > 100 µM |  |  |  |  |  |  |  |  |  | 
8 | O=C(Nc1ccc(F)cc1)C(=O)C(C1OC(=O)c2ccccc21)[N+](=O)[O-] (centres undefined) | > 100 µM | > 100 µM | > 100 µM | > 100 µM | > 100 µM | > 100 µM | > 100 µM | > 100 µM | > 100 µM | > 100 µM |  |  |  |  |  |  |  |  |  | 
9 | C[C@]12CC[C@H](OCCC#N)CC1=CC[C@@H]1C2CC[C@]2(C)/C(=N/OCCC#N)CCC12 (some centres undefined) | > 100 µM | 97.9 µM | > 100 µM | > 100 µM | > 100 µM | > 88.6 µM | > 100 µM | > 73.9 µM | > 100 µM | > 78.9 µM |  |  |  |  |  |  |  |  |  | 
10 | C=CCN1C=CC(=O)[C@H](O[Si](C)(C)C(C)(C)C)[C@@H]1/C=C/c1ccccc1 | 20 µM | 35.3 µM | 25.2 µM | 40.1 µM | 28.6 µM | 28.5 µM | 28.8 µM | 46.1 µM | 20.2 µM | 22.7 µM | 7.33 µM | 20.7 µM | 12.4 µM | 15.2 µM | 14.9 µM | 14 µM | 10.7 µM | 19 µM | 3.36 µM | 10.5 µM
11 | O=c1ccnc2c1ccc1[nH]cccc12 | > 100 µM | > 100 µM | > 100 µM | > 100 µM | > 100 µM | > 100 µM | > 100 µM | > 100 µM | > 100 µM | > 100 µM |  |  |  |  |  |  |  |  |  | 
12 | NC(=N\N=C/c1cccc([N+](=O)[O-])c1)/C(N)=N\N=C/c1cccc([N+](=O)[O-])c1 | > 100 µM | > 100 µM | > 100 µM | > 100 µM | > 100 µM | > 100 µM | > 100 µM | > 100 µM | > 100 µM | > 100 µM | > 100 µM | > 100 µM | > 100 µM | > 100 µM | > 100 µM | > 100 µM | > 100 µM | > 100 µM | > 100 µM | > 100 µM
13 | O=P([O-])(O)OP(=O)([O-])O.[NH-][C@@H]1CCCC[C@H]1[NH-].[Pt+4] | > 100 µM and 14.9 µM | > 100 µM | > 100 µM | > 100 µM | > 100 µM | > 100 µM | > 100 µM | > 100 µM | > 100 µM | > 100 µM |  | 47.9 µM and 14.9 µM | 42.4 µM and 8.27 µM | 13 µM and 6.59 µM | 98.4 µM and 37.4 µM | 52.4 µM | 5.9 µM and 3.29 µM | 41.7 µM and 13.6 µM | > 70.2 µM | > 100 µM and 34 µM
14 | NC(=S)N/N=C(\C(=O)Nc1cccc([N+](=O)[O-])c1)c1nc2ccc([N+](=O)[O-])cc2[nH]c1=O | > 100 µM | > 100 µM | > 100 µM | > 100 µM | > 100 µM | > 100 µM | > 100 µM | > 100 µM | > 100 µM | > 100 µM |  |  |  |  |  |  |  |  |  | 
15 | CC1(C)CC(n2cnc(-c3ccc(F)cc3)c2-c2ccnc(N)n2)CC(C)(C)N1 | > 25 µM | > 25 µM | > 25 µM | > 25 µM | > 25 µM | > 25 µM | > 25 µM | > 25 µM | > 25 µM | > 25 µM | > 16.2 µM | > 25 µM | > 20.1 µM | > 25 µM | 23.6 µM | 16.1 µM | 17.4 µM | > 24.1 µM | > 25 µM | > 16.5 µM
